How the values were obtained:
[1] = tested on: CYPIR; assay: Post-emergence foliar-applied weed control, greenhouse (Example I); assay type: in vivo, Cyperus iria L.
Excerpt: (§1) Evaluation of Post-emergence Foliar-Applied Herbicidal Mixtures for Weed Control in Direct Seeded Rice
(§2) Seeds or nutlets of the desired test plant species were planted in a soil matrix prepared by mixing a loam or sandy loam soil (e.g., 28.6 percent silt, 18.8 percent clay, and 52.6 percent sand, with a pH of about 5.8 and an organic matter content of about 1.8 percent) and calcareous grit in an 80 to 20 ratio. The soil matrix was contained in plastic pots with a volume of 1 quart and a surface area of 83.6 square centimeters (cm^2). When required to ensure good germination and healthy plants, a fungicide treatment and/or other chemical or physical treatment was applied. The plants were grown for 8-22 days in a greenhouse with an approximate 14 h photoperiod which was maintained at about 29° C. during the day and 26° C. during the night. Nutrients (Peters Excel® 15-5-15 5-Ca 2-Mg and iron chelate) were applied in the irrigation solution as needed and water was added on a regular basis. Supplemental lighting was provided with overhead metal halide 1000-Watt lamps as necessary. The plants were employed for testing when they reached the first through fourth true leaf stage.
(§3) Treatments consisted of the acid or esters of 4-amino-3-chloro-5-fluoro-6-(4-chloro-2-fluoro-3-methoxy-phenyl)pyridine-2-carboxylic acid (Compound A), each formulated as an SC (suspension concentrate), and various herbicidal components alone and in combination. Forms of Compound A were applied on an acid equivalent basis.
(§4) Other herbicidal components were applied on an active ingredient basis and included 4-hydroxyphenyl pyruvate dioxygenase (HPPD)-inhibiting herbicides mesotrione formulated as Callisto®, sulcotrione formulated as Mikado®, pyrazolynate formulated as Sunbird® 10% GR, and benzobicyclon formulated as Benzobicyclon 3.5%.
(§5) Treatment requirements were calculated based upon the rates being tested, the concentration of active ingredient or acid equivalent in the formulation, and a 12 mL application volume at a rate of 187 L/ha.
(§6) For treatments comprised of formulated compounds, measured amounts of compounds were placed individually in 25 mL glass vials and diluted in a volume of 1.25% (v/v) Agri-Dex® crop oil concentrated to obtain 12× stock solutions. […] Application solutions were prepared by adding an appropriate amount of each stock solution (e.g., 1 mL) and diluted to the appropriate final concentrations with the addition of 10 mL of an aqueous mixture of 1.25% (v/v) crop oil concentrate so that the final spray solutions contained 1.25+/−0.05% (v/v) crop oil concentrate.
(§7) For treatments comprised of formulated and technical compounds, weighed amounts of the technical materials were placed individually in 25 mL glass vials and dissolved in a volume of 97:3 v/v acetone/DMSO to obtain 12× stock solutions, and measured amounts of the formulated compounds were placed individually in 25 mL glass vials and diluted in a volume of 1.5% (v/v) crop oil concentrate or water to obtain 12× stock solutions. […] Application solutions were prepared by adding an appropriate amount of each stock solution (e.g., 1 mL) and diluted to the appropriate final concentrations with the addition of an appropriate amount of an aqueous mixture of 1.5% (v/v) crop oil concentrate so that the final spray solutions contained 1.25% (v/v) crop oil concentrate. As required, additional water and/or 97:3 v/v acetone/DMSO was added to individual application solutions so that the final acetone and DMSO concentrations of the application solutions being compared were 8.1% and 0.25%, respectively.
(§8) All stock solutions and applications solutions were visually inspected for compound compatibility prior to application. Spray solutions were applied to the plant material with an overhead Mandel track sprayer equipped with a 8002E nozzles calibrated to deliver 187 L/ha over an application area of 0.503 m^2 at a spray height of 18 to 20 inches (46 to 50 cm) above average plant canopy height. […]

[2] = tested on: ECHCG; assay: as above; assay type: in vivo, Echinochloa crusgalli (L.) Beauv.
Excerpt: as §1, §2, §3, §4, §5, §6, §7, §8

Compound	Visual Weed Control (%) - 22 DAA CYPIR Obs ([1]; 4.38 gae/ha) [%]	Visual Weed Control (%) - 22 DAA CYPIR Obs ([1]; 8.75 gae/ha) [%]	Visual Weed Control (%) - 20 DAA ECHCG Obs ([2]; 4.38 gae/ha) [%]	Visual Weed Control (%) - 22 DAA ECHCG Obs ([2]; 4.38 gae/ha) [%]	Visual Weed Control (%) - 22 DAA ECHCG Obs ([2]; 8 gae/ha) [%]	Visual Weed Control (%) - 22 DAA ECHCG Obs ([2]; 8.75 gae/ha) [%]	Visual Weed Control (%) - 22 DAA ECHCG Obs ([2]; 16 gae/ha) [%]	Visual Weed Control (%) - 22 DAA ECHCG Obs ([2]; 32 gae/ha) [%]	Visual Weed Control (%) - 20 DAA CYPIR Obs ([1]; 4.38 gae/ha) [%]	Visual Weed Control (%) - 20 DAA CYPIR Obs ([1]; 8.75 gae/ha) [%]	Visual Weed Control (%) - 20 DAA CYPIR Obs ([1]; 17.5 gae/ha) [%]	Visual Weed Control (%) - 22 DAA ECHCG Obs ([2]; 5.3 gae/ha) [%]	Visual Weed Control (%) - 20 DAA ECHCG Obs ([2]; 8.75 gae/ha) [%]	Visual Weed Control (%) - 22 DAA ECHCG Obs ([2]; 10.6 gae/ha) [%]
COc1c(Cl)ccc(-c2nc(C(=O)OCc3ccccc3)c(Cl)c(N)c2F)c1F [Compound A Benzyl Ester, benzyl ester of 4-amino-3-chloro-5-fluoro-6-(4-chloro-2-fluoro-3-methoxy-phenyl)pyridine-2-carboxylic acid]	10	65	40	40	35	60	65	80						
COc1c(Cl)ccc(-c2nc(C(=O)O)c(Cl)c(N)c2F)c1F [Compound A Acid, 4-amino-3-chloro-6-(4-chloro-2-fluoro-3-methoxyphenyl)-5-fluoropyridine-2-carboxylic acid]			25						75	90	90	65	80	55

From patent US8841233B2, “Herbicidal compositions comprising 4-amino-3-chloro-5-fluoro-6-(4-chloro-2-fluoro-3-methoxyphenyl) pyridine-2-carboxylic acid or a derivative thereof and 4-hydroxyphenyl-pyruvate dioxygenase (HPPD) inhibitors” (Dow Agrosciences LLC, priority 2012, dated 2014)
